Values joined by “and” are separate entries in the source; they are usually repeats but may differ in a detail not shown here. Equal values may be shown once. Read-outs that look alike come from different tables or passages of the source.
What was measured:
ADAM17 = target: T1, ADAM17 (Homo sapiens, UniProt P78536); settings: cited from earlier work
T1 construct: purchased R&D Systems 930-ADB

Meprin β = settings: cited from earlier work
MMP9 = target: T2, MMP9 (Homo sapiens, UniProt P14780); settings: cited from earlier work
T2 construct: purchased R&D Systems 911-MP
T2 sequence (P14780 94-707): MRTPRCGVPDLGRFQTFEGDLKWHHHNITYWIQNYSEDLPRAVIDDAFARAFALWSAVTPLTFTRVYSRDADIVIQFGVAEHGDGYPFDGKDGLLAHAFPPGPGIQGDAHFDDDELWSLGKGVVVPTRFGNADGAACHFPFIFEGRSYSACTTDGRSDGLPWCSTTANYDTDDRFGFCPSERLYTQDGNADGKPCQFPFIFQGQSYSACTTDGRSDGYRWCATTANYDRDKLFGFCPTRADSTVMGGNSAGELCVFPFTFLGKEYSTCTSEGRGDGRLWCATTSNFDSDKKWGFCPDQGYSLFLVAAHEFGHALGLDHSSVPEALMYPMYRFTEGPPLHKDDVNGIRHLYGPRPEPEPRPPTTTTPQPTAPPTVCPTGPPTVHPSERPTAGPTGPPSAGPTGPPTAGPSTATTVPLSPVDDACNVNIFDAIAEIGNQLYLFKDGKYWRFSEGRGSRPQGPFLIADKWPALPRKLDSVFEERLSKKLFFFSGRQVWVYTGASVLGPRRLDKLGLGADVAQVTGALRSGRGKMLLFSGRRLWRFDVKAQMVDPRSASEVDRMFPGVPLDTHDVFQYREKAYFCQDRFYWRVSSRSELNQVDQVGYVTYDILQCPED

Meprin α [1] = settings: cited from earlier work; for meprin α/β fold selectivity ratio: meprin α over meprin β ref 8
ADAM10 = target: T3, ADAM10 (Homo sapiens, UniProt O14672); settings: cited from earlier work
T3 construct: purchased R&D Systems 936-AD
T3 sequence (O14672 214-748): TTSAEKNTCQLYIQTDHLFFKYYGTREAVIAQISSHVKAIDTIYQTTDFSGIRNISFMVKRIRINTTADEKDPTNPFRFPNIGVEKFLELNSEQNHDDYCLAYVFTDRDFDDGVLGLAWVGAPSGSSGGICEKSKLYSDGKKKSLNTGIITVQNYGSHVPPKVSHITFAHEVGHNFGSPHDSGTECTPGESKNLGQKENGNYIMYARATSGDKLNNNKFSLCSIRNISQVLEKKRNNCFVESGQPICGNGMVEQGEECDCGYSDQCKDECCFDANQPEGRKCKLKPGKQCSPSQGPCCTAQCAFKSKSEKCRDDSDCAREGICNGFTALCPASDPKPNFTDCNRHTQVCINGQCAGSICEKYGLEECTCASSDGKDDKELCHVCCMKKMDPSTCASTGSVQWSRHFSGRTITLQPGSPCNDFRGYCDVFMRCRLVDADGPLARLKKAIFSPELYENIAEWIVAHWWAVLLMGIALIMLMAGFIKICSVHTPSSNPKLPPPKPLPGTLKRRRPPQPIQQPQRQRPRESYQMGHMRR

MMP2 = target: T4, MMP2 (Homo sapiens, UniProt P08253); settings: cited from earlier work
T4 construct: purchased R&D Systems 902-MP
T4 sequence (P08253 110-660): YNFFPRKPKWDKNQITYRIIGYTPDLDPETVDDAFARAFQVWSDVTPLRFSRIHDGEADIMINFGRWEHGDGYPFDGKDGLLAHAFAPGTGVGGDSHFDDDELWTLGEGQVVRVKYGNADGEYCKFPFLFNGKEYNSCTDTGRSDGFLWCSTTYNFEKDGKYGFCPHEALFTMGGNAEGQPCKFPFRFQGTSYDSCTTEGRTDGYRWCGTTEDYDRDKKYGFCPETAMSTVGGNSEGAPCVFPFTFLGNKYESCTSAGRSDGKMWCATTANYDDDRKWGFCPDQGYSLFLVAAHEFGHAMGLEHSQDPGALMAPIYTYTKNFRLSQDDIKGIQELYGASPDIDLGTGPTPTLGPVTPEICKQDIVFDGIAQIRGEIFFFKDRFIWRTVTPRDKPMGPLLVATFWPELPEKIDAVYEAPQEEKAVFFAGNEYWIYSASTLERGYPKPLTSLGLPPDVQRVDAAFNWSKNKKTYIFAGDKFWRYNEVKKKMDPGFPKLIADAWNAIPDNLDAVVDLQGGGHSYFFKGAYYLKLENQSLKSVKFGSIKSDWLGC

MMP13 = target: T5, MMP13 (Homo sapiens, UniProt P45452); settings: cited from earlier work
T5 construct: purchased R&D Systems 511-MM

meprin α [2] = target: T6, meprin α (Homo sapiens, UniProt Q16819); assay: Meprin α assay in a 384-well plate (fluorogenic substrate Mca-YVADAPK-K(Dnp)); format: biochemical
T6 construct: Strep-tag; made in house; host or cells: BTI-TN-5B1-4 insect cells (baculovirus, amplified in Sf9)
T6 sequence (Q16819 66-746): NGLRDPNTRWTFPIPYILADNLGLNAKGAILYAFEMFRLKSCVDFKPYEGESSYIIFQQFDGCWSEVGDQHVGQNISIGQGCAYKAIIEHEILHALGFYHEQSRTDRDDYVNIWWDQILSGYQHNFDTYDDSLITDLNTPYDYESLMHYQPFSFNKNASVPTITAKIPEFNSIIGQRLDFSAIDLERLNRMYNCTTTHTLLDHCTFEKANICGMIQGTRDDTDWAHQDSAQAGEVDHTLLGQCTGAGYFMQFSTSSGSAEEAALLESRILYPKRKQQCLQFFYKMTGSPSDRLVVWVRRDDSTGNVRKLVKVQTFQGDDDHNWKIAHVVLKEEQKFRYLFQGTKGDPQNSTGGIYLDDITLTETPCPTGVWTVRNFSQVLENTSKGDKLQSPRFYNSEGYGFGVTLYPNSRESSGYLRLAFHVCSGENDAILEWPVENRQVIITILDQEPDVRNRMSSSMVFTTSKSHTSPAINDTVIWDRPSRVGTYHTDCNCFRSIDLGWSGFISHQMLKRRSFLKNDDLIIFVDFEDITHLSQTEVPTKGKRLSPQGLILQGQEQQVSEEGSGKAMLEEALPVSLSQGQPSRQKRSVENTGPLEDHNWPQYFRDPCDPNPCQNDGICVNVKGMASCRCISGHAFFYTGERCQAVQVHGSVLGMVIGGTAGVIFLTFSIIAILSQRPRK
Protocol: (§1) Recombinant human meprin α and meprin β were expressed using the Bac-to-Bac expression system (Gibco Life Technologies, Paisley, UK) as described before. Media and supplements were obtained from Gibco Life Technologies. Recombinant Baculoviruses were amplified in adherently growing Spodoptera frugiperda (Sf)9 insect cells at 27 °C in Grace’s insect medium supplemented with 10% fetal bovine serum, 50 units/mL penicillin, and 50 μg/mL streptomycin. Protein expression was performed in 500 mL suspension cultures of BTI-TN-5B1-4 insect cells growing in Express Five SFM supplemented with 4 mM glutamine, 50 units/mL penicillin, and 50 μg/mL streptomycin in Fernbach-flasks using a Multitron orbital shaker (INFORS AG, Bottmingen, Switzerland). Cells were infected at a density of 2 × 10^6 cells/mL with an amplified viral stock at a MOI of ~10. […] Meprins were activated by trypsin, which was removed afterwards by affinity chromatography using a column containing immobilized chicken ovomucoid, a trypsin inhibitor.
(§2) Both assays followed the same general protocol. […] After 30 min incubation at RT, the reactions were started by addition of 5 µL of 2× solutions of substrates (20 µM, meprin α Mca-YVADAPK-K(Dnp), and for meprin β Mca-EDEDED-K(Dnp)).

[3] = system: MMP-2, MMP-3, MMP-8, MMP-9, MMP-10, MMP-14, ADAM10, and ADAM17; assay: Selectivity panel of related metzincins; format: biochemical; settings: meprin α vs MMP-2, MMP-3, MMP-8, MMP-9, MMP-10, MMP-14, ADAM10, ADAM17
Protocol: Both assays followed the same general protocol. 2.5 µL of 2× enzyme solution (20 nM) in assay buffer (10 mM HEPES, 0.001% Brij-35, pH 7.5) were added to solid bottom black 384 plates (Greiner, cat# 789075). Next, test compounds and pharmacological controls were added to corresponding wells using a 384-pin tool device (V&P Scientific, San Diego). After 30 min incubation at RT, the reactions were started by addition of 2.5 µL of 2× solutions of substrate (R&D Systems cat#: ES010, Mca-KPLGL-Dpa-AR-NH2, 20 µM). Reactions were incubated at RT for 2 h, after which the fluorescence was measured using a Perkin Elmer Viewlux multimode microplate imager (λexcitation = 324 nm, λemission = 393 nm). All compounds were tested in 10-point, 1:3 serial dilutions dose-response format starting with highest concentration of 100 µM. IC50 values were determined using non-linear regression analysis using the GraphPad Prism 8.0 suite of programs.
All assays followed the same general protocol. […] Reactions were incubated at RT for 1 h, after which the fluorescence was measured using the Synergy H4 multimode microplate reader (Biotek Instruments) (λexcitation = 324 nm, λemission = 390 nm). […] IC50 values were determined using non-linear regression analysis using the GraphPad Prism 8.0 suite of programs.

human meprin β = target: T7, human meprin β (Homo sapiens, UniProt Q16820); assay: Meprin β assay in a 384-well plate (fluorogenic substrate Mca-EDEDED-K(Dnp)); format: biochemical; settings: triplicate, ± SD
T7 construct: His-tag; made in house; host or cells: BTI-TN-5B1-4 insect cells (baculovirus, amplified in Sf9)
T7 sequence (Q16820 62-701): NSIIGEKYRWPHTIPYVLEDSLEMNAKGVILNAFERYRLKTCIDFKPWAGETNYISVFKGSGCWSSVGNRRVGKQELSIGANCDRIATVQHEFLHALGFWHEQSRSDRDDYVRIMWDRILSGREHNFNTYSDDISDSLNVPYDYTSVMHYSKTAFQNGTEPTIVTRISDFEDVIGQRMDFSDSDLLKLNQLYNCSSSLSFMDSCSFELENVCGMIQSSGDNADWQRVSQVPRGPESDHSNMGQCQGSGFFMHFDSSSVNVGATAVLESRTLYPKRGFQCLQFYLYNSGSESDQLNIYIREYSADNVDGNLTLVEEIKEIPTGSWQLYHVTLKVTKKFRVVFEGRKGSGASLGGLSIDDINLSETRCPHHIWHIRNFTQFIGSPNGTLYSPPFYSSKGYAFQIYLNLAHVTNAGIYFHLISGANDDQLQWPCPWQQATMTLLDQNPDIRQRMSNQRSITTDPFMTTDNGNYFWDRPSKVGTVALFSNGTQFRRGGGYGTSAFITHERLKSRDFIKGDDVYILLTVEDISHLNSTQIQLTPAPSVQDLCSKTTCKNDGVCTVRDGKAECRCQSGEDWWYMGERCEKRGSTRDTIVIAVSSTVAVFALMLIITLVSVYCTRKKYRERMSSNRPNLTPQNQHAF
Protocol: as §1, §2

[4] = single value given, at 10 μM ref 11

T1 sequence (P78536 215-824): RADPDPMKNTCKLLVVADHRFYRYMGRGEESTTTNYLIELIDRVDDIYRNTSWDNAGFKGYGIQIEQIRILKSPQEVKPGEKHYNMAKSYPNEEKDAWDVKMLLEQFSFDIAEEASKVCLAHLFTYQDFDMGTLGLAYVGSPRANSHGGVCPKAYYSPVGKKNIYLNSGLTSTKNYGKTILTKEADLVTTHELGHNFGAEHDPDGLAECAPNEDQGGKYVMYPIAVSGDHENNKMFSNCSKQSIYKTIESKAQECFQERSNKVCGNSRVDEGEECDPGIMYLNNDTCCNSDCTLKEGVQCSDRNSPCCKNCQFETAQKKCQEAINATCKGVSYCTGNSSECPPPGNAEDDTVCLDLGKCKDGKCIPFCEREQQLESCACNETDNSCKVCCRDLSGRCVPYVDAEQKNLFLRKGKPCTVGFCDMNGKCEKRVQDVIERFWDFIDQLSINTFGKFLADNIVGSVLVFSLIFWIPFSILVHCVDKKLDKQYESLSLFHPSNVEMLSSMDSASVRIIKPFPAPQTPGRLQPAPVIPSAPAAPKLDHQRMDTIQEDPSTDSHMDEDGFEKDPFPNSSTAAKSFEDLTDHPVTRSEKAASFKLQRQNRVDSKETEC

Structure (SMILES): O=C(Cc1c(-c2ccccc2)n[nH]c1-c1ccccc1)NO [2e]
- ADAM17 % activity remaining (ADAM17; [4]): 61%
- IC50 (Meprin β): 199 ± 1 nM
- MMP9 % activity remaining (MMP9; [4]): 81%
- IC50 (Meprin α [1]): 3 ± 1 nM
- ADAM10 % activity remaining (ADAM10; [4]): 73%
- MMP2 % activity remaining (MMP2; [4]): 104%
- MMP13 % activity remaining (MMP13; [4]): 75%

Structure (SMILES): O=C(CN(Cc1ccc2c(c1)OCO2)Cc1ccc2c(c1)OCO2)NO [10d]
- ADAM17 % activity remaining (ADAM17; at 10 μM (top) ref 8): 86%
- ADAM17 % activity remaining (ADAM17; at 200 μM (bottom) ref 8): 57%
- IC50 (Meprin β): 2950 ± 350 nM
- MMP9 % activity remaining (MMP9; at 10 μM (top) ref 8): 91%
- MMP9 % activity remaining (MMP9; at 200 μM (bottom) ref 8): 61%
- IC50 (Meprin α [1]): 160 ± 1 nM
- meprin α/β fold selectivity ratio (Meprin α [1]): 18 fold
- ADAM10 % activity remaining (ADAM10; at 10 μM (top) ref 8): 86%
- ADAM10 % activity remaining (ADAM10; at 200 μM (bottom) ref 8): 61%
- MMP2 % activity remaining (MMP2; at 10 μM (top) ref 8): 95%
- MMP2 % activity remaining (MMP2; at 200 μM (bottom) ref 8): 26%
- MMP13 % activity remaining (MMP13; at 10 μM (top) ref 8): 86%
- MMP13 % activity remaining (MMP13; at 200 μM (bottom) ref 8): 55%

Structure (SMILES): O=C(CN(Cc1ccc2c(c1)OCCO2)Cc1ccc2c(c1)OCCO2)NO [10e]
- ADAM17 % activity remaining (ADAM17; at 10 μM (top) ref 8): 80%
- ADAM17 % activity remaining (ADAM17; at 200 μM (bottom) ref 8): 41%
- IC50 (Meprin β): 7590 ± 10 nM
- MMP9 % activity remaining (MMP9; at 10 μM (top) ref 8): 91%
- MMP9 % activity remaining (MMP9; at 200 μM (bottom) ref 8): 21%
- IC50 (Meprin α [1]): 400 ± 30 nM
- meprin α/β fold selectivity ratio (Meprin α [1]): 19 fold
- ADAM10 % activity remaining (ADAM10; at 10 μM (top) ref 8): 80%
- ADAM10 % activity remaining (ADAM10; at 200 μM (bottom) ref 8): 56%
- MMP2 % activity remaining (MMP2; at 10 μM (top) ref 8): 94%
- MMP2 % activity remaining (MMP2; at 200 μM (bottom) ref 8): 65%
- MMP13 % activity remaining (MMP13; at 10 μM (top) ref 8): 98%
- MMP13 % activity remaining (MMP13; at 200 μM (bottom) ref 8): 47%

Structure (SMILES): COc1ccc(-n2c(CSc3ncccn3)nnc2SCC(=O)NO)cc1 [SR19855, N-hydroxy-2-((4-(4-methoxyphenyl)-5-((pyrimidin-2-ylthio)methyl)-4H-1,2,4-triazol-3-yl)thio)acetamide]
- meprin α/β selectivity (in words) (meprin α [2]; Figure 1): moderate meprin α/β selectivity
- meprin α/β fold selectivity (ratio of IC50 values) (meprin α [2]; meprin α over meprin β): ~ 13 fold and 13 fold
- IC50 (meprin α [2]; triplicate, ± SD): 1300 ± 100 nM
- Meprin α IC50 (meprin α [2]; triplicate, ± SD): low-micromolar
- selectivity over a larger panel of metzincins [3]: at least 10 fold
- IC50 (human meprin β): 17000 ± 3000 nM
